Test results taken from patent US6242199A, “Assays for growth hormone secretagogue receptors” (Merck & Co., Inc., priority 1998, dated 2001).

Molecular target: T1, swine growth hormone secretagogue receptor (Type I, clone 7-3) (Sus scrofa, UniProt Q95254)
T1 construct: translation of the longest ORF encoded in clone 7-3 encodes a protein of 353 amino acids; expressed in transfected cells; host or cells: COS-7 (transient, Lipofectamine)
Assay: [35S]-Compound A binding to COS-7 cell membranes transfected with swine GHSR clone 7-3
Procedure: Mammalian cells (COS-7) were transfected with GHSR expression plasmids using Lipofectamine (GIBCO-BRL; Hawley-Nelson, 1993, Focus 15:73). Transfections were performed in 60 mm dishes on 80% confluent cells (approximately 4×10^5 cells) with 8 μg of Lipofectamine and 32 μg of GHSR plasmid DNA.
Binding of [^35 S]-Compound A to swine pituitary membranes and crude membranes prepared from COS-7 cells transfected with GHSR expression plasmids was conducted. Crude cell membranes from COS-7 transfectants were prepared on ice, 48 hrs. post-transfection. Each 60 mm dish was washed twice with 3 ml of PBS, once with 1 ml homogenization buffer (50 mM Tris-HCl [pH 7.4], 5 mM MgCl2, 2.5 mM EDTA, 30 μg/ml bacitracin). 0.5 ml of homogenization buffer was added to each dish, cells were removed by scraping and then homogenized using a Polytron device (Brinkmann, Syosset, N.Y.; 3 bursts of 10 sec. at setting 4). The homogenate was then centrifuged for 20 min. at 11,000×g at 0° C. and the resulting crude membrane pellet (chiefly containing cell membranes and nuclei) was resuspended in homogenization buffer supplemented with 0.06% BSA (0.1 ml/60 mm dish) and kept on ice. Binding reactions were performed at 20° C. for 1 hr. in a total volume of 0.5 ml containing: 0.1 ml of membrane suspension, 10 μl of [^35 S]-Compound A (0.05 to 1 nM; specific activity approximately 900 Ci/mmol), 10 μl of competing drug and 380-390 μl of homogenization buffer. Bound radioligand was separated by rapid vacuum filtration (Brandel 48-well cell harvester) through GF/C filters pretreated for 1 hr. with 0.5% polyethylenimine. After application of the membrane suspension to the filter, the filters were washed 3 times with 3 ml each of ice cold 50 mM Tris-HCl [pH 7.4], 10 mM MgCl2, 2.5 mM EDTA and 0.015% Triton X-100, and the bound radioactivity on the filers was quantitated by scintillation counting. Specific binding (>90% of total) is defined as the difference between total binding and non-specific binding conducted in the presence of 50 nM unlabeled Compound A.

T1 sequence (Q95254 14-366): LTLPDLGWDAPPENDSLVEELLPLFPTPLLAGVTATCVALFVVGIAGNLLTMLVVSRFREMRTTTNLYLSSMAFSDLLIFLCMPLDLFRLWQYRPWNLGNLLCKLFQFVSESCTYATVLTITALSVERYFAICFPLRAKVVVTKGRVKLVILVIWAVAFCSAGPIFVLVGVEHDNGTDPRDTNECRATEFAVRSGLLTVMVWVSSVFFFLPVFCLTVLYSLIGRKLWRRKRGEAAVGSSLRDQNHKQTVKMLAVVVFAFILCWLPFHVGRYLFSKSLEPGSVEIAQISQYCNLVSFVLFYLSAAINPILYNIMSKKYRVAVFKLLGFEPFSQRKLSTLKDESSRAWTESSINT

- inhibition at 0.05 µM (1 h, 50 nM unlabeled Compound A, read-out: specific binding displaced by unlabeled Compound A): > 90%
- saturable binding, Bmax (clone 7-3 expressed transiently in COS-7 cells): ~ 80 fmol/mg protein
- Kd (clone 7-3 expressed transiently in COS-7 cells, read-out: high affinity binding, KD): ~0.2 nM
- specific binding of total (nonspecific in presence of 50 nM unlabeled Compound A): > 90%
SMILES: CC(C)(N)C(=O)N[C@H](COCc1ccccc1)C(=O)N1CCC2(CC1)CN(S(C)(=O)=O)c1ccccc12 [Compound A, (N-[1(R)-[1,2-dihydro-1-methanesulfonlylspiro[3H-indole-3,4'-piperidin]-1'-yl)carbonyl]-2-(phenylmethyloxy)-ethyl]-2-amino-2-methyl-propanamide]
